Assay results taken from PMC10278073, “How Is Substrate Halogenation Triggered by the Vanadium Haloperoxidase from Curvularia inaequalis?” (ACS Catalysis, 2023).

Assays:
[1] = target: T1, vanadium chloroperoxidase (CiVCPO) (Curvularia inaequalis, UniProt P49053); test: fluorescence binding titration (quenching), tight-binding fit, pH […]
T1 construct: gene CPO; His-trap purified CiVCPO expressed in E. coli BL21 DE3 (67 kDa)
T1 sequence (P49053 1-609): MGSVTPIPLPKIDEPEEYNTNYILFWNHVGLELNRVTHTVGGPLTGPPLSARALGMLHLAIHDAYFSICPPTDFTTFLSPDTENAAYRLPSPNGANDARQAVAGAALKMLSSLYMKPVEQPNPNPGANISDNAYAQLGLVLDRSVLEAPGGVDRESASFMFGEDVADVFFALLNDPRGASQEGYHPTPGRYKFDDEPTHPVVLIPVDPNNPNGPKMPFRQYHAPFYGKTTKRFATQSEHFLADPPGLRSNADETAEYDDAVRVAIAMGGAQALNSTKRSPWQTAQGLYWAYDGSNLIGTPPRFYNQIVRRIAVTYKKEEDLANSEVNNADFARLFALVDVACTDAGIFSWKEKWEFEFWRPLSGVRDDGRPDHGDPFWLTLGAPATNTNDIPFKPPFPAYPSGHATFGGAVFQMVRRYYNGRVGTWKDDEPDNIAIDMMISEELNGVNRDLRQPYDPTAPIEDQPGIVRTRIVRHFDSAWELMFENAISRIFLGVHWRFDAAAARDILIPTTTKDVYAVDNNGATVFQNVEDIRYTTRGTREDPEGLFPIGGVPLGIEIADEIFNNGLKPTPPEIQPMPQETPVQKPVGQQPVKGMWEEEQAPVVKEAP

purified protein = substrate: c1ccc(-c2cc3ccccc3[nH]2)cc1; test: purified protein; conditions: vanadate pocket near the protein surface: Pro47, His222, Gln220, Asp292, Gly293, Asp390, Phe393, Pro396, Phe397 (docking/MD only)

Molecule: Cn1c(-c2ccccc2)cc2ccccc21 [methylphenylindole]
- Kd [1]: 660 ± 50 nM

B1: vanadium chloroperoxidase (CiVCPO) (Curvularia inaequalis) (protein)
chain: MGSVTPIPLPKIDEPEEYNTNYILFWNHVGLELNRVTHTVGGPLTGPPLSARALGMLHLAIHDAYFSICPPTDFTTFLSPDTENAAYRLPSPNGANDARQAVAGAALKMLSSLYMKPVEQPNPNPGANISDNAYAQLGLVLDRSVLEAPGGVDRESASFMFGEDVADVFFALLNDPRGASQEGYHPTPGRYKFDDEPTHPVVLIPVDPNNPNGPKMPFRQYHAPFYGKTTKRFATQSEHFLADPPGLRSNADETAEYDDAVRVAIAMGGAQALNSTKRSPWQTAQGLYWAYDGSNLIGTPPRFYNQIVRRIAVTYKKEEDLANSEVNNADFARLFALVDVACTDAGIFSWKEKWEFEFWRPLSGVRDDGRPDHGDPFWLTLGAPATNTNDIPFKPPFPAYPSGHATFGGAVFQMVRRYYNGRVGTWKDDEPDNIAIDMMISEELNGVNRDLRQPYDPTAPIEDQPGIVRTRIVRHFDSAWELMFENAISRIFLGVHWRFDAAAARDILIPTTTKDVYAVDNNGATVFQNVEDIRYTTRGTREDPEGLFPIGGVPLGIEIADEIFNNGLKPTPPEIQPMPQETPVQKPVGQQPVKGMWEEEQAPVVKEAP
- Km (purified protein): 1.52 µM
